Assays:
[1] = target: Adenosine receptor A3 (Homo sapiens) (UniProt P0DMS8); conditions: Compound concentration 10.0 uM
[2] = target: Purinergic P2Y (Rattus norvegicus) (UniProt O35811+Q9EPX4+P49651+Q63371+P41232+O35881+Q6GUG4); conditions: Compound concentration 10.0 uM
[3] = target: Glutamate NMDA receptor (Rattus norvegicus) (UniProt P35439+Q00959+Q00960+Q00961+Q62645+Q8VHN2+Q9R1M7); conditions: Compound concentration 10.0 uM
Rattus norvegicus = species on record: Rattus norvegicus; conditions: Compound concentration 10.0 uM
[4] = target: Glucocorticoid receptor (Homo sapiens) (UniProt P04150); conditions: Compound concentration 10.0 uM
Glucocorticoid receptor (Homo sapiens), sequence (P04150 whole entry): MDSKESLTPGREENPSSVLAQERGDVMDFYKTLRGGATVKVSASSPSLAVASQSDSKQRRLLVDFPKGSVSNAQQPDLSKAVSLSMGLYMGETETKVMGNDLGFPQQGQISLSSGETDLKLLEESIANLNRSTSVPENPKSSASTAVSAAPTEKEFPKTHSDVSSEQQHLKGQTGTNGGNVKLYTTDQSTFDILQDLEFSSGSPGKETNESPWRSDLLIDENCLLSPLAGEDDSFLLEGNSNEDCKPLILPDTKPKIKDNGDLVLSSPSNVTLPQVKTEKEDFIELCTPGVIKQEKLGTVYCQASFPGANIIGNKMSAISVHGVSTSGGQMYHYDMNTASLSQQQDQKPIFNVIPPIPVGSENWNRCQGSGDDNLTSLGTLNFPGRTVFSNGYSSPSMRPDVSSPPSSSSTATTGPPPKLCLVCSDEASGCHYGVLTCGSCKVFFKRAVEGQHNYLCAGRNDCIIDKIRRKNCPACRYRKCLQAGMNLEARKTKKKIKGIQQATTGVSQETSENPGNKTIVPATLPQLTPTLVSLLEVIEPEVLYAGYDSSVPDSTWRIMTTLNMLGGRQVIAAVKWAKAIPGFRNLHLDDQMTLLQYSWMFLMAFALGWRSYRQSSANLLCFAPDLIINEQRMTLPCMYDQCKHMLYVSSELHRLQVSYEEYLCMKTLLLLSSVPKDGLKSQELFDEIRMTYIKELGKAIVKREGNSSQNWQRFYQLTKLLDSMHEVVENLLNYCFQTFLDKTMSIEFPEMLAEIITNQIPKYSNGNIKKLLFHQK

[5] = target: Monoamine oxidase A (MAO-A) (Homo sapiens, UniProt P21397); experiment: Inhibition of Monoamine Oxidase MAO-A at compound concentration of 10.0 uM in the Eurofins-Panlabs enzyme assay (Eurofins_assay_140010); design: substrate with concentration 50 uM Kynuramine, incubation time 60 min, incubation temperature 37 C; conditions: recombinant human MAO-A expressed in insect Hi5 cells, probe Kynuramine (50 uM), compound concentration 10 uM
Monoamine oxidase A (MAO-A), sequence (P21397 whole entry): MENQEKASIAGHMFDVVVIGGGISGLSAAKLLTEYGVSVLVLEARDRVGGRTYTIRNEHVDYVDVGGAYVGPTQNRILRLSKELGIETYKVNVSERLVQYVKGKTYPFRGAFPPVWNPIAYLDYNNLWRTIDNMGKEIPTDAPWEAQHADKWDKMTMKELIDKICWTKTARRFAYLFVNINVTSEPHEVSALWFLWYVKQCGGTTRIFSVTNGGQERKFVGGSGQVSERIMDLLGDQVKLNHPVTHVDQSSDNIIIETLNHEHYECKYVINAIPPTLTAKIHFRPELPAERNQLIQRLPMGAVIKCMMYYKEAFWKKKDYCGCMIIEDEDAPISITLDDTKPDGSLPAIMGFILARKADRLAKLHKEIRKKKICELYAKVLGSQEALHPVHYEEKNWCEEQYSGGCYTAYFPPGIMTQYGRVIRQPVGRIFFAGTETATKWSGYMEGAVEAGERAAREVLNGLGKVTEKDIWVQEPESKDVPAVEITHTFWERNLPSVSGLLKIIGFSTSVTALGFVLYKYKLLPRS

[6] = target: Muscarinic acetylcholine receptor M1 (Homo sapiens) (UniProt P11229); conditions: Compound concentration 10.0 uM
Muscarinic acetylcholine receptor M1 (Homo sapiens), sequence (P11229 whole entry): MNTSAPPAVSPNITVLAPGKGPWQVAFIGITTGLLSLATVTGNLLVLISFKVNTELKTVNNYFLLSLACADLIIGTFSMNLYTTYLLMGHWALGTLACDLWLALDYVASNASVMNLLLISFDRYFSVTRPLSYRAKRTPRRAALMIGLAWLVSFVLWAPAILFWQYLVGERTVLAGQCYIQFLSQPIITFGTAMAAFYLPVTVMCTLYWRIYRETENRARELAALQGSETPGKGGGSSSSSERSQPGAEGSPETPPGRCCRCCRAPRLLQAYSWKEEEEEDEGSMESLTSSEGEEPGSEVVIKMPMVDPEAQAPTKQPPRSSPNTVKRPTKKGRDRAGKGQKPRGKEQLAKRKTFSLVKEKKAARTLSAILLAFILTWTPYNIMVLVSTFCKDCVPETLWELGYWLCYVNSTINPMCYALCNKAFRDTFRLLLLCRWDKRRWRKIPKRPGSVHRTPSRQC

[7] = target: Alpha-2B adrenergic receptor (Canis lupus familiaris, UniProt Q2MDQ0); experiment: Cell based assay dog (ADRA2B); type: functional
Alpha-2B adrenergic receptor (Canis lupus familiaris, UniProt Q2MDQ0), sequence (Q2MDQ0 whole entry): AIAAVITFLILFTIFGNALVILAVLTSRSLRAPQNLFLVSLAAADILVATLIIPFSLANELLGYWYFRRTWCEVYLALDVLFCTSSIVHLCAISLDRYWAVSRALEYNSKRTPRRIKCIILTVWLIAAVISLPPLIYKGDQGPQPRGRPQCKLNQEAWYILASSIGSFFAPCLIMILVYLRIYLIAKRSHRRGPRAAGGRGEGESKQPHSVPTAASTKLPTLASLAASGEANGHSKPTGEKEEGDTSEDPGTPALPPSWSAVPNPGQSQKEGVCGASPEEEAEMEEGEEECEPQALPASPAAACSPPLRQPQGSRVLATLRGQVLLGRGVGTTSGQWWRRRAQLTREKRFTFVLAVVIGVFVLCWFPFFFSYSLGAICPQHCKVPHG

[8] = target: T1, Alpha-2B adrenergic receptor (Homo sapiens, UniProt P18089); experiment: GPCRScan assay: inhibition of Alpha2B; design: radioligand conc. used [nm] 1.5 – 2.0, parental cells HEKT
T1 sequence (P18089 whole entry): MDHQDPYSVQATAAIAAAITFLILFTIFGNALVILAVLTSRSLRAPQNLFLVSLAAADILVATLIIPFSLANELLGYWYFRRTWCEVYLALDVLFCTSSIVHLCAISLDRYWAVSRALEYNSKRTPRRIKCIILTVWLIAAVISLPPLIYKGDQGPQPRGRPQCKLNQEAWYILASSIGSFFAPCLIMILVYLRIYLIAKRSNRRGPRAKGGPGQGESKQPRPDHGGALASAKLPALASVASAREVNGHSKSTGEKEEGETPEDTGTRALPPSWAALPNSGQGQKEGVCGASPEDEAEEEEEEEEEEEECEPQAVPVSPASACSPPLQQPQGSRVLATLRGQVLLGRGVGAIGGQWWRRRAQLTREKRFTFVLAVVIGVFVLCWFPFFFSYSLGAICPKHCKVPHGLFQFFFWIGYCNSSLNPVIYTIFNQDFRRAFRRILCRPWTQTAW

Adenosine receptor A3 (Homo sapiens), sequence (P0DMS8 whole entry): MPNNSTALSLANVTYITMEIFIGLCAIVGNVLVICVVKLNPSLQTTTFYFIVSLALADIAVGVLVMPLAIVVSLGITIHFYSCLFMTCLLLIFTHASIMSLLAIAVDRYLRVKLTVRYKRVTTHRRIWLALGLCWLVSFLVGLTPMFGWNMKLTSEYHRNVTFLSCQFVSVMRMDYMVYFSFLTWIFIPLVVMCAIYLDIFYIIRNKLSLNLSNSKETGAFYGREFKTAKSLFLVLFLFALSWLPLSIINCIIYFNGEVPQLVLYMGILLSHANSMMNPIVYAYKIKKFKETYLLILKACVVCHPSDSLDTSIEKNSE

Structure (SMILES) | inhibition [1] [%] | inhibition [2] [%] | inhibition [3] [%] | inhibition (Rattus norvegicus) [%] | inhibition [4] [%] | inhibition at 60 min, 10 µM [5] | inhibition [6] [%] | IC50 [7] | Ki ([8]; read-out: Ki) [nM] | Ki ([8]; read-out: pKi (converted)) [nM]
CNc1cc[n+](CCNC(=O)c2ccn3c(-c4c(C)noc4C)cnc3c2)cc1 | 1.1 | 10.6 | 4 | 0.4 | 1.3 | -13.8% (not active) |  |  |  | 
Cc1noc(C)c1-c1cnc2cc(C(=O)NCCC[n+]3ccc(N(C)C)cc3)ccn12 |  |  |  |  |  |  | -6.93 | 10000 nM (not active) | 2760 | 2510
